Legend:
Melanocortin receptor 3 = Melanocortin receptor 3 (Homo sapiens, UniProt P41968)
Progesterone receptor = target: T1, Progesterone receptor (Homo sapiens, UniProt P06401); format: functional
T1 sequence (P06401 whole entry): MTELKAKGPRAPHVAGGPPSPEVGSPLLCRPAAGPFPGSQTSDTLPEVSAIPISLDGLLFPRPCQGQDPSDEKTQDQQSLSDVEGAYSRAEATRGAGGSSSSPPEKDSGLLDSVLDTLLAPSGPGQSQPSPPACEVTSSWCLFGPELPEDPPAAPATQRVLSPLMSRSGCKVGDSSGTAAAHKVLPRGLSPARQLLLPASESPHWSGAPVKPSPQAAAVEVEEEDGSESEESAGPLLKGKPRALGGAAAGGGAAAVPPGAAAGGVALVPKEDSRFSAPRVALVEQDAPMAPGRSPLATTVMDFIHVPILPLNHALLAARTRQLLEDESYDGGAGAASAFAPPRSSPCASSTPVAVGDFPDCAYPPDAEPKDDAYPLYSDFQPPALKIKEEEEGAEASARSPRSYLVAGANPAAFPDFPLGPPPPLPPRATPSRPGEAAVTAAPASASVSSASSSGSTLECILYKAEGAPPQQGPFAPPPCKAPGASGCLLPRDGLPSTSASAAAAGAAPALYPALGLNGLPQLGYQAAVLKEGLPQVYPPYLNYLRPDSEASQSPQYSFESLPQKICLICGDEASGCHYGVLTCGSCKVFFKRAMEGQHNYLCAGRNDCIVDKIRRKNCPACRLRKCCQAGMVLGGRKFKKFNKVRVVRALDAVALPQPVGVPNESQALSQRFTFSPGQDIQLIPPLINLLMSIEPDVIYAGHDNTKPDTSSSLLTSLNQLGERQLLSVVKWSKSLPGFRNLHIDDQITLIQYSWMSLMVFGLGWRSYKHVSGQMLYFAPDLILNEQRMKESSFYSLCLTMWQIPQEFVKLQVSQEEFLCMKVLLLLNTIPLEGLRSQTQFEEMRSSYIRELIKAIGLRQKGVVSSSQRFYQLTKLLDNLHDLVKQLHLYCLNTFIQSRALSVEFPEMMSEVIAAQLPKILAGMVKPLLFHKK

Motilin receptor = Motilin receptor (Homo sapiens, UniProt O43193)
[1] = target: 5-hydroxytryptamine receptor 2B (Homo sapiens, UniProt P41595); format: functional, cell-based
Estrogen receptor = target: T2, Estrogen receptor (Homo sapiens, UniProt P03372)
T2 sequence (P03372 whole entry): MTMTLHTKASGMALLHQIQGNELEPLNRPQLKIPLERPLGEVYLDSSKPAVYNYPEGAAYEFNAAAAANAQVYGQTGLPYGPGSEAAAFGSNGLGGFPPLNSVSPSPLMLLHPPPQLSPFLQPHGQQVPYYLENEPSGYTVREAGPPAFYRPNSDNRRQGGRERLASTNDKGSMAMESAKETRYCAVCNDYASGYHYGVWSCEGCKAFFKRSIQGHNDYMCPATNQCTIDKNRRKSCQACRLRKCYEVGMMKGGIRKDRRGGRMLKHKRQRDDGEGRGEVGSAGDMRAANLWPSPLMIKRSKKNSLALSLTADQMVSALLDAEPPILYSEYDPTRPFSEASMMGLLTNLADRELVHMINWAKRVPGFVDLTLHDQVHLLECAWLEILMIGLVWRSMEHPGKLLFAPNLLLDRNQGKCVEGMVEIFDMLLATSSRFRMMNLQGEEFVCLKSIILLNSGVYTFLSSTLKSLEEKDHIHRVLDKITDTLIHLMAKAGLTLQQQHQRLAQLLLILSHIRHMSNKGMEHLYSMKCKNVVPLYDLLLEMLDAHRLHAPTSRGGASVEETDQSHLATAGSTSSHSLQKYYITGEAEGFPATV

[2] = target: Neuronal acetylcholine receptor subunit alpha-4 (Homo sapiens, UniProt P43681)
[3] = target: T3, 5-hydroxytryptamine receptor 2C (Homo sapiens, UniProt P28335)
T3 sequence (P28335 whole entry): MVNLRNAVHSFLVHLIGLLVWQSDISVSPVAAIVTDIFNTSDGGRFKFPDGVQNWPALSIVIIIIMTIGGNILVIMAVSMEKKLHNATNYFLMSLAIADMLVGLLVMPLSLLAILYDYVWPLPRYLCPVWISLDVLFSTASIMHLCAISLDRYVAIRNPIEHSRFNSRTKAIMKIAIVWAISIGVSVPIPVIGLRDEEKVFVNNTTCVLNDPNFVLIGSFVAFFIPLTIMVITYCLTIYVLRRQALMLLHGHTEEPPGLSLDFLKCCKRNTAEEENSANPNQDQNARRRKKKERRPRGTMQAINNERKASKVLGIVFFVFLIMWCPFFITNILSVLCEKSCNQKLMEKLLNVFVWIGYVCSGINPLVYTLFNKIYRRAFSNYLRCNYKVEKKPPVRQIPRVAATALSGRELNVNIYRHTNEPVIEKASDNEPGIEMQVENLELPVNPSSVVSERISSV

[4] = target: Kappa-type opioid receptor (Homo sapiens, UniProt P41145)
Histamine H1 receptor = Histamine H1 receptor (Homo sapiens, UniProt P35367)
[5] = target: T4, Alpha-2B adrenergic receptor (Homo sapiens, UniProt P18089)
T4 sequence (P18089 whole entry): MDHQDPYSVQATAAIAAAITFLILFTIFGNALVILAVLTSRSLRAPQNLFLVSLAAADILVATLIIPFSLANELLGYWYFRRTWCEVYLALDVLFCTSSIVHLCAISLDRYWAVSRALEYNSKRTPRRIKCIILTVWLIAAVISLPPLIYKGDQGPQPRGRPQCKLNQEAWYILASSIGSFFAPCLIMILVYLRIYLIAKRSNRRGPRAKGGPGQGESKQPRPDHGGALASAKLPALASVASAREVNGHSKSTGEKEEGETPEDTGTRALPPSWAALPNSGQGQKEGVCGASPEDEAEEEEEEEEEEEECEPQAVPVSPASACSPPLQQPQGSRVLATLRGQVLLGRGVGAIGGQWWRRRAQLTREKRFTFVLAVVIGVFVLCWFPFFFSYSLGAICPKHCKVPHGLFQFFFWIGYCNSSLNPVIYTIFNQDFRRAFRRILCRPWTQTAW

Cannabinoid receptor 1 = Cannabinoid receptor 1 (Homo sapiens, UniProt P21554); format: functional, cell-based
Further: assay procedure not described here.

Histamine H1 receptor, sequence (P35367 whole entry): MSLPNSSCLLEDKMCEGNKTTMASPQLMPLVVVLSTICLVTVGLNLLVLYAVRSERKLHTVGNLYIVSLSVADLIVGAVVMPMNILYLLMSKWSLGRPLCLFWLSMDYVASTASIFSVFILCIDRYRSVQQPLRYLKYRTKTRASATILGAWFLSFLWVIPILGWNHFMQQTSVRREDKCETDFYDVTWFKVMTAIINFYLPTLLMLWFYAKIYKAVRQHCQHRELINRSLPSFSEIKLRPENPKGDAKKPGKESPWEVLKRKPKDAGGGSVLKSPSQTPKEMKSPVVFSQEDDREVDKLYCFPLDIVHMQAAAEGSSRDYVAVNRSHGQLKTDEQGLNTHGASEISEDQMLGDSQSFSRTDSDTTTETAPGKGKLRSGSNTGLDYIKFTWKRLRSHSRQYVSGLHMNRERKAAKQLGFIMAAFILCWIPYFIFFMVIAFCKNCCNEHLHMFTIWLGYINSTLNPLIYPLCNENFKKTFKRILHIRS
Melanocortin receptor 3, sequence (P41968 whole entry): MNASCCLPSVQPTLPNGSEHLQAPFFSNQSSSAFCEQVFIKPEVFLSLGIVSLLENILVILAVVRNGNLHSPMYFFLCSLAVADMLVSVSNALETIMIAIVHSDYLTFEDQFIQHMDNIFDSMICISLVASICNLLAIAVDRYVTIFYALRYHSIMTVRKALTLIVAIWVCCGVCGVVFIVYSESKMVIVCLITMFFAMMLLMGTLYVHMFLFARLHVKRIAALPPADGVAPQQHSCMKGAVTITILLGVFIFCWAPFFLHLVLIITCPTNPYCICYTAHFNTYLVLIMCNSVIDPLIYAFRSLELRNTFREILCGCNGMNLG
Motilin receptor, sequence (O43193 whole entry): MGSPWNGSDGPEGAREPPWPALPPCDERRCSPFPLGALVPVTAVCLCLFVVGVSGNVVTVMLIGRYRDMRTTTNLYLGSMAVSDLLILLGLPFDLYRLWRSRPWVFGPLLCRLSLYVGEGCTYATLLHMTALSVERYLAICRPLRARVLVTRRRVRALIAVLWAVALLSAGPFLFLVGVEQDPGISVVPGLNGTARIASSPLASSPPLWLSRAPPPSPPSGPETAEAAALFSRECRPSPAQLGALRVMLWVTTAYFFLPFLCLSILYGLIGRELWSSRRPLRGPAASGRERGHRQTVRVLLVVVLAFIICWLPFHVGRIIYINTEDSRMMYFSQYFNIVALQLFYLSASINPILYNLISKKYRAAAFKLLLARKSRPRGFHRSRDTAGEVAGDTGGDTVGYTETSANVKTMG
Kappa-type opioid receptor, sequence (P41145 whole entry): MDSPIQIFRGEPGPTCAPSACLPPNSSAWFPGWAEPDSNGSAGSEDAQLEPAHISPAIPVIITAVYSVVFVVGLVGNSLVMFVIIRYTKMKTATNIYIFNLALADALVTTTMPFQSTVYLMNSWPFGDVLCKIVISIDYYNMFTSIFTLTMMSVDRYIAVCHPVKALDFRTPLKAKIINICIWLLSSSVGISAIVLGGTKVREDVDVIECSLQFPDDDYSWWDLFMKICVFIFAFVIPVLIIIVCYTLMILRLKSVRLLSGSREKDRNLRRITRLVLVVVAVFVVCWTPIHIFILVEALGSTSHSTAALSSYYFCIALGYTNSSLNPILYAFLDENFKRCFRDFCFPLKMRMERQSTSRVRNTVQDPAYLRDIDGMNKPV
Neuronal acetylcholine receptor subunit alpha-4, sequence (P43681 whole entry): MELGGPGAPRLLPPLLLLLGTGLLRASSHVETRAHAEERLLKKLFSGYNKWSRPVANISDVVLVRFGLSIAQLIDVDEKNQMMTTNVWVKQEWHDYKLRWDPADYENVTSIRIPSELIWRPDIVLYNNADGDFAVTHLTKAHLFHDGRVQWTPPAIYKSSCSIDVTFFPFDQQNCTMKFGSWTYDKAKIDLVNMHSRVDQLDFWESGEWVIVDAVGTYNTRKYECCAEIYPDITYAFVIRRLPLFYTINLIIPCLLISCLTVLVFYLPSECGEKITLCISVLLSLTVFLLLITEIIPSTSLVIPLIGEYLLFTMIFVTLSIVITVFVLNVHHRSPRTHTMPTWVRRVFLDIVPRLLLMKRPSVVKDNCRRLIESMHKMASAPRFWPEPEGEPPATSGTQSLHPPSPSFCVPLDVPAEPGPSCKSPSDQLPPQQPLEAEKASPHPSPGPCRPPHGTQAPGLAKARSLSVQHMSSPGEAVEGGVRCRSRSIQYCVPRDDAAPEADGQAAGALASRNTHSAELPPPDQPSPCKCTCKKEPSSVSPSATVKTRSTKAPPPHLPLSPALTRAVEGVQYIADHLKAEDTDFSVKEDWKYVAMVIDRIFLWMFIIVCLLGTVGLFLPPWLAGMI
5-hydroxytryptamine receptor 2B, sequence (P41595 whole entry): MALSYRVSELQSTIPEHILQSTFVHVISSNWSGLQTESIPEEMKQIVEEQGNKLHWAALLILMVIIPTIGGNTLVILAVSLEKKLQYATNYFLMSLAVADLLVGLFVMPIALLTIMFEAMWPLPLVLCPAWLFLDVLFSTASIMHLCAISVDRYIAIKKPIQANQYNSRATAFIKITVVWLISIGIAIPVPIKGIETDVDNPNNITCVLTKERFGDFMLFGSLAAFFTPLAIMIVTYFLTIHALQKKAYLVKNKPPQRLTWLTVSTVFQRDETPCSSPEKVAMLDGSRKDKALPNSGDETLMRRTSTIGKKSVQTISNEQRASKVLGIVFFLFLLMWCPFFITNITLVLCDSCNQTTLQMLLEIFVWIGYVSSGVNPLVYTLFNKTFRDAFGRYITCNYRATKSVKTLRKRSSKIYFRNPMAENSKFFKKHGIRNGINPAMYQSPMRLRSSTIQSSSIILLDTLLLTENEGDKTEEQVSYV
Cannabinoid receptor 1, sequence (P21554 whole entry): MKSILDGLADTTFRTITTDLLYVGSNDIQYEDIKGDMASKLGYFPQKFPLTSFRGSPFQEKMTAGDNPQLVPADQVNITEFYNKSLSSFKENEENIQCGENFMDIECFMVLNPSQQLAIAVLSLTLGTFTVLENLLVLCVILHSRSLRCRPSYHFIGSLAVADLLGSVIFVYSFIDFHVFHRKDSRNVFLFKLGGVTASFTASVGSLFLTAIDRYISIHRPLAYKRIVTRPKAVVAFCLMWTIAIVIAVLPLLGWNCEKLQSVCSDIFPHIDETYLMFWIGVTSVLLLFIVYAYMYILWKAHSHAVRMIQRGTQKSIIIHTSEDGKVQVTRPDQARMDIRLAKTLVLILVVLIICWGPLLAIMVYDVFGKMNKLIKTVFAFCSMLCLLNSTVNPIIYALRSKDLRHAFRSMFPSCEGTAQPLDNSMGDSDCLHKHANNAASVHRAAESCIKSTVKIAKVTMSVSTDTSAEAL

SMILES	AC50 (Melanocortin receptor 3) [µM]	AC50 (Progesterone receptor) [µM]	AC50 (Motilin receptor) [µM]	AC50 [1] [µM]	AC50 (Estrogen receptor) [µM]	AC50 [2] [µM]	AC50 [3] [µM]	AC50 [4] [µM]	AC50 (Histamine H1 receptor) [µM]	AC50 [5] [µM]	AC50 (Cannabinoid receptor 1) [µM]
COc1ccc(/C=C/C(=O)Nc2ccccc2C(=O)O)cc1OC	> 30	> 30	> 30	> 30	> 30	> 30	> 30	> 30	–	–	–
CCC(=O)OCC(=O)[C@@]1(OC(=O)CC)[C@@H](C)C[C@H]2[C@@H]3CCC4=CC(=O)C=C[C@]4(C)[C@@]3(F)[C@@H](O)C[C@@]21C [BETAMETHASONE DIPROPIONATE]	> 30	–	> 30	> 30	> 10	> 30	> 30	> 30	> 30	> 30	> 30
CS(=O)(=O)OCCCCOS(C)(=O)=O [BUSULFAN]	> 30	> 30	> 30	> 30	> 30	> 30	> 30	> 30	–	–	> 30
CCCC(C)(COC(N)=O)COC(=O)NC(C)C (stereo not drawn) [CARISOPRODOL]	> 30	–	> 10	> 10	> 30	> 10	> 30	> 10	> 10	> 10	> 30
C=CC1=C(C(=O)O)N2C(=O)[C@@H](NC(=O)/C(=N\OCC(=O)O)c3csc(N)n3)[C@H]2SC1 [CEFIXIME]	> 30	> 30	> 30	–	> 30	> 30	–	–	> 30	–	> 30
CC(=O)OCC(CCn1cnc2cnc(N)nc21)COC(C)=O [FAMCICLOVIR]	> 30	–	> 10	> 10	> 30	> 10	> 30	> 10	–	–	> 30
Nc1ccn([C@@H]2O[C@H](CO)[C@@H](O)C2(F)F)c(=O)n1 [GEMCITABINE]	> 30	> 30	> 10	> 10	> 30	> 10	> 30	> 10	–	–	> 30
COC1=C(OC)C(=O)C(CCCCCCCCCCO)=C(C)C1=O [IDEBENONE]	> 30	–	> 10	> 10	> 30	> 10	> 10	> 10	–	–	> 30
CC#CCn1c(N2CCC[C@@H](N)C2)nc2c1c(=O)n(Cc1nc(C)c3ccccc3n1)c(=O)n2C [LINAGLIPTIN]	> 30	–	> 10	> 10	> 30	> 10	> 30	> 10	> 10	> 10	–
CCn1cc(C(=O)O)c(=O)c2cc(F)c(N3CCN(C)CC3)cc21 [PEFLOXACIN]	> 30	> 30	> 30	> 30	> 30	–	> 30	–	–	–	> 30
CCCNC(C)C(=O)Nc1ccccc1C (stereo not drawn) [PRILOCAINE]	> 30	3.9	> 30	> 30	> 30	> 30	> 30	> 30	–	–	> 30
CCN(CC)CC(=O)Oc1ccc(NC(C)=O)cc1 [PROPACETAMOL]	> 30	> 30	> 30	> 30	–	> 30	> 30	18	> 30	> 30	> 30
Cc1cc2nc3c(=O)[nH]c(=O)nc-3n(C[C@H](O)[C@H](O)[C@H](O)COP(=O)(O)O)c2cc1C [RIBOFLAVIN 5'-PHOSPHATE]	> 30	–	> 30	–	3.7	> 30	24	> 30	> 30	> 30	–
[H]/N=C(/N)N[C@H]1[C@H](O)[C@@H](O)[C@H](O[C@@H]2O[C@@H](C)[C@](O)(C=O)[C@H]2O[C@@H]2O[C@@H](CO)[C@H](O)[C@@H](O)[C@@H]2NC)[C@@H](N/C(N)=N\[H])[C@@H]1O [STREPTOMYCIN]	> 30	> 30	> 30	> 30	> 30	> 30	> 30	> 30	–	–	> 30
COc1c(O[C@@H]2O[C@H](CO)[C@@H](O)[C@H](O)[C@H]2O)cc2c(c1OC)-c1ccc(SC)c(=O)cc1[C@@H](NC(C)=O)CC2 [THIOCOLCHICOSIDE]	> 30	> 30	> 30	> 30	–	> 30	> 30	> 30	> 30	> 30	> 30
Cc1cccc(N(C)C(=S)Oc2ccc3ccccc3c2)c1 [TOLNAFTATE]	> 10	> 30	> 10	> 10	> 30	> 10	> 30	> 10	–	–	–
COc1cc2c(Nc3ccc(Br)cc3F)ncnc2cc1OCC1CCN(C)CC1 [VANDETANIB]	> 30	> 10	> 30	14	> 30	9.6	> 30	> 30	–	0.682	> 30
N#C[C@@H]1CCCN1C(=O)CNC12CC3CC(CC(O)(C3)C1)C2 [VILDAGLIPTIN]	> 30	–	> 10	> 30	> 30	> 10	> 30	> 30	> 30	> 30	–

— ChEMBL document CHEMBL5291721, “A preclinical secondary pharmacology resource illuminates target-adverse drug reaction associations of marketed drugs” (Nat Commun, 2023)
